4 compounds from patent USRE50631E1, “ROR1 antibody immunoconjugates” (VelosBio Inc., priority 2017, dated 2025) can be followed below.

Each structure is given as a SMILES string. Several values for one entry are separate records, joined by “and”; a condition that tells them apart may be missing. Equal entries are not always repeated. Non-standard residues stand in square brackets, D forms with d. Residues, ends and D or L forms follow the SMILES beside them. *: point of attachment. Dolaproine = CO[C@@H]([C@@H]1CCCN1)[C@@H](C)C(=O)O; Dil = CC[C@H](C)[C@H](NC)[C@@H](CC(=O)O)OC; X1 = C[C@@H](N*)[C@@H](O)c1ccccc1; NMeV = CN[C@H](C(=O)O)C(C)C

In one data set the test system is Mec-vector. Description: Cytotoxicity in vitro (CellTiter-Glo viability), Mec-vector. The settings on record: read-out: EC50 (nM), cytotoxicity in vitro; Mec-vector (CLL), 72 hours. As for the experimental part: (§1) Cells were cultured in log phase growth and distributed into 96-well plates. Each cell line was plated at a slightly different cell density, ranging from 5×10^3 to 50×10^4 cells/well. Cells in duplicate were incubated with 3-fold serial dilution of a particular immunoconjugate (10, 3.33, 1.11, 0.37, 0.12, 0.041, 0.014, and 0.0045 μM) for 72 hours at 37° C. and 5% CO2. After treatment, cells were incubated with an equal volume of CellTiter-Glo® reagent (Promega Inc.) for 15 minutes at room temperature and viability was determined by a luminometer. Curves and EC50 values were generated in GraphPad Prism using a sigmoidal dose response non-linear regression fit.
(§2) Cells were grown and distributed into 96-well plates as described in Example 5. Cells in duplicate were incubated with 3-fold serial dilution of a particular immunoconjugate (660, 220, 73.3, 24.4, 8.14, 2.71, 0.91, and 0.3 nM) for 72 hours at 37° C. and 5% CO2. In some experiments, cells were incubated with an immunoconjugate for 96 hours instead of 72 hours (values highlighted with “*”). After treatment, cell viability was determined as described in Example 5. Cell surface ROR1 expression was assessed by quantitative flow cytometry and ROR1 expression was characterized as MFI>30 or MFI<30 (MFI: mean fluorescent intensity). […]

Another data set relates to Mec-ROR. The experiment in a line: Cytotoxicity in vitro (CellTiter-Glo viability), Mec-ROR. Conditions: read-out: EC50 (nM), cytotoxicity in vitro; Mec-ROR (CLL), 72 hours. As to the method:
as §1, §2
(In general: ATP-based viability assays read luminescence as a measure of living cells.)

The next data set relates to DOHH2. Conditions: read-out: EC50 (nM), cytotoxicity in vitro; DOHH2 (DLBCL), 72 hours. As to the method:
(§3) ROR1 binding by these conjugates was tested in cell culture to define the potency of various linker-cytotoxic agent combinations. Three different types of cancer cell lines were tested: B-lymphoma cell-lines TMD-8, HBL-1, and DOHH2; triple negative breast cancer cell lines HCC1187, MDA-MB-468, Bt549; and ovarian cancer cell lines A2008, TOV112D, JHOM1, and SKOvr3.
as §1
(§4) Cells were grown and distributed into 96-well plates as described in Example 5. […] After treatment, cell viability was determined as described in Example 5. Cell surface ROR1 expression was assessed by quantitative flow cytometry and ROR1 expression was characterized as MFI>30 or MFI<30 (MFI: mean fluorescent intensity).

A further data set has as its system U2932. The experiment in a line: Cytotoxicity in vitro (CellTiter-Glo viability), U2932. In kind it is cell-based, human. Conditions: U2932 (DLBCL), 72 hours.
The subject of another data set is WSU-DLCL. The experiment in a line: Cytotoxicity in vitro (CellTiter-Glo viability), WSU-DLCL. In kind it is cell-based, human. The settings on record: WSU-DLCL (DLBCL), 72 hours.
A further data set has as its system Bt549. Description: Cytotoxicity in vitro (CellTiter-Glo viability), Bt549. In kind it is cell-based, human. Conditions: Bt549 (TNBC), 72 hours.
The subject of the next data set is DU4475. The experiment in a line: Cytotoxicity in vitro (CellTiter-Glo viability), DU4475. Conditions: DU4475 (TNBC), 72 hours. In kind it is cell-based, human.
In the next data set the test system is HCC1937. The experiment in a line: Cytotoxicity in vitro (CellTiter-Glo viability), HCC1937. In kind it is cell-based, human. The settings on record: HCC1937 (TNBC), 72 hours.
In another data set the test system is A549. Description: Cytotoxicity in vitro (CellTiter-Glo viability), A549. In kind it is cell-based, human. Conditions: A549 (NSCLC), 72 hours.
In the next data set the test system is Hep-G2. In kind it is cell-based, human. Conditions: Hep-G2 (HCC), 72 hours; read-out: EC50 (nM), cytotoxicity in vitro.
In a further data set the test system is U2OS. In kind it is cell-based, human. Conditions: U2OS (OS), 72 hours; read-out: EC50 (nM), cytotoxicity in vitro.
Another data set concerns HOS. Description: Cytotoxicity in vitro (CellTiter-Glo viability), HOS. In kind it is cell-based, human. Conditions: HOS (OS), 72 hours.
The next data set relates to SAOS. Description: Cytotoxicity in vitro (CellTiter-Glo viability), SAOS. The settings on record: SAOS (OS), 72 hours. In kind it is cell-based, human.
The next data set relates to FaDu. In kind it is cell-based, human. Conditions: FaDu (HN), 72 hours; read-out: EC50 (nM), cytotoxicity in vitro.
The test system of another data set is OvCar4. Description: Cytotoxicity in vitro (CellTiter-Glo viability), OvCar4. In kind it is cell-based, human. Conditions: OvCar4 (Ovarian), 72 hours.
A further data set relates to TOV112D. Description: Cytotoxicity in vitro (CellTiter-Glo viability), TOV112D. In kind it is cell-based, human. Conditions: TOV112D (Ovarian), 72 hours.
Another data set deals with JHOM1. Description: Cytotoxicity in vitro (CellTiter-Glo viability), JHOM1. Conditions: JHOM1 (Ovarian), 72 hours. In kind it is cell-based, human.
The next data set concerns SKOvr3. Description: Cytotoxicity in vitro (CellTiter-Glo viability), SKOvr3. In kind it is cell-based, human. Conditions: SKOvr3 (Ovarian), 72 hours.
The subject of the next data set is ES2. Description: Cytotoxicity in vitro (CellTiter-Glo viability), ES2. In kind it is cell-based, human. The settings on record: ES2 (Ovarian), 72 hours.
The next data set has as its system A2780. The experiment in a line: Cytotoxicity in vitro (CellTiter-Glo viability), A2780. In kind it is cell-based, human. The settings on record: A2780 (Ovarian), 72 hours.
Another data set relates to Bx-PC3. Description: Cytotoxicity in vitro (CellTiter-Glo viability), Bx-PC3. In kind it is cell-based, human. Conditions: Bx-PC3 (Pancreatic), 72 hours.
The subject of a further data set is As-PC1. Description: Cytotoxicity in vitro (CellTiter-Glo viability), As-PC1. Conditions: As-PC1 (Pancreatic), 72 hours. In kind it is cell-based, human.
For a further data set, the system named is TMD-8. The experiment in a line: Cytotoxicity in vitro (CellTiter-Glo viability), TMD-8. In kind it is cell-based, human. Conditions: TMD-8 (DLBCL), 72 hours.
A further data set concerns HBL-1. The experiment in a line: Cytotoxicity in vitro (CellTiter-Glo viability), HBL-1. In kind it is cell-based, human. The settings on record: HBL-1 (DLBCL), 72 hours.
The subject of a further data set is HCC1187. Description: Cytotoxicity in vitro (CellTiter-Glo viability), HCC1187. The settings on record: read-out: EC50 (nM), cytotoxicity in vitro; HCC1187 (TNBC), 72 hours. As for the experimental part: as §3, §1, §4
The next data set concerns MDA-MB-468. Description: Cytotoxicity in vitro (CellTiter-Glo viability), MDA-MB-468. Conditions: read-out: EC50 (nM), cytotoxicity in vitro; MDA-MB-468 (TNBC), 72 hours. As to the method: as §3, §1, §4
The test system of another data set is Hep-3B. Description: Cytotoxicity in vitro (CellTiter-Glo viability), Hep-3B. In kind it is cell-based. Conditions: Homo sapiens, Hep3B; Hep-3B (HCC), 72 hours.
The next data set relates to MDA-MB-231. Description: Cytotoxicity in vitro (CellTiter-Glo viability), MDA-MB-231. The settings on record: MDA-MB-231 (TNBC), 72 hours. In kind it is cell-based, human.
A further data set deals with H460. Description: Cytotoxicity in vitro (CellTiter-Glo viability), H460. In kind it is cell-based, human. Conditions: H460 (NSCLC), 72 hours.

Description for Bt549: (§5) Cells were grown and distributed into 96-well plates as described in Example 5. Cells in duplicate were incubated with 3-fold serial dilution of a particular immunoconjugate (660, 220, 73.3, 24.4, 8.14, 2.71, 0.91, and 0.3 nM) for 72 hours at 37° C. and 5% CO2. […] After treatment, cell viability was determined as described in Example 5.
Description for JHOM1: as §5
Description for SKOvr3: as §5
Description for TMD-8: as §5
Description for TOV112D: as §5

The EC50 is the concentration needed to bring the measured effect to its halfway point. In the case of `CC[C@H](C)[C@@H]([C@@H](CC(=O)N1CCC[C@H]1[C@H](OC)[C@@H](C)C(=O)N[C@H](C)[C@@H](O)c1ccccc1)OC)N(C)C(=O)[C@@H](NC(=O)[C@@H](NC)C(C)C)C(C)C` [MMAE, monomethyl auristatin E, reference compound] (H-[NMeV]V[Dil][Dolaproine]-X1), the concentration giving a half-maximal response (EC50) turned out to be 0.5 nM in the data set on Mec-vector; 0.6 nM with Mec-ROR; 0.007 nM with DOHH2; 0.006 nM with U2932; 0.06 nM in the data set on WSU-DLCL; 0.047 nM with Bt549. Also, the EC50 in the data set with DU4475 was 2.5 nM; in the data set on HCC1937, > 1000 nM; in the data set on A549 it was 0.06 nM; in the data set with Hep-G2, > 1000 nM; in the data set with U2OS, 1.2 nM; with HOS, 0.06 nM. Moreover, the EC50 with SAOS is 0.05 nM; in the data set on FaDu it was > 1000 nM; in the data set with OvCar4 it was 24.2 nM; in the data set with TOV112D it was 0.04 nM; in the data set on JHOM1 it was 0.01 nM; in the data set with SKOvr3 it was 0.01 nM. For the same compound, the EC50 with ES2 was determined as 1.1 nM; with A2780, 0.08 nM; with Bx-PC3, 0.04 nM; in the data set with As-PC1, 0.04 nM.

In the case of `COc1cc2cc(c1Cl)N(C)C(=O)C[C@H](OC(=O)[C@H](C)N(C)C(=O)CCS)[C@]1(C)O[C@H]1[C@H](C)[C@@H]1C[C@@](O)(NC(=O)O1)[C@H](OC)/C=C/C=C(\C)C2` [DM1, N2′-Deacetyl-N2′-(3-mercaptol-oxopropyl)maytansine], the EC50 in the data set on TMD-8 stood at 1.4 nM; with HBL-1, 9.3 nM; in the data set on DOHH2 it was 1.78 nM; in the data set on HCC1187, 3.9 nM; in the data set with MDA-MB-468, 15.2 nM; with Bt549 it was 0.047 nM. In addition, the concentration for a half-maximal effect (EC50) was > 1000 nM with OvCar4, 2.4 nM with TOV112D, 0.01 nM in the data set on JHOM1 and 9.1 nM in the data set with SKOvr3.

Take `CN(C)CCN1C(=O)c2cccc3cc4ccccc4c(c23)C1=O` [Azonafide, azonafide, reference compound]: the EC50 in the data set on A549 (Homo sapiens) and in the data set on Hep-3B was > 1000 nM each time.

As to `COc1cccc2c1C(=O)c1c(O)c3c(c(O)c1C2=O)C[C@@](O)(C(=O)CO)C[C@@H]3O[C@H]1C[C@H]2[C@H](O[C@@H]3[C@@H](OC)OCCN32)[C@H](C)O1` [PNU-159682, reference compound], the EC50 was 0.005 nM in the data set with MDA-MB-231; 0.001 nM and 0.002 nM in the data set with H460.
